# Test system: Calf thymus DNA
# Experiment: Scatchard binding constant between calf thymus DNA (CT-DNA) measured in 30 mM Tris HCl buffer at pH 7.5
# Type: nucleic-acid assay
# Conditions: Bos taurus
row,Structure (SMILES),Binding constant [M⁻¹]
1,CN(C)CCCN1C(=O)c2cccc3cc4nc(N)sc4c(c23)C1=O,47300
2,CN(C)CCCN1C(=O)c2cccc3c2c(cc2nc(N)sc23)C1=O,28700
3,CN(C)CCN1C(=O)c2cccc3c2c(cc2nc(N)sc23)C1=O,19800
4,CN(C)CCN1C(=O)c2cccc3cc4nc(N)sc4c(c23)C1=O,25600
